Key:
[1] = test system: Lactobacillus casei and Lactococcus lactis subsp. lactis, as bacteria; assay: Increase in cell number of bacteria depending on saccharides; assay type: cell-based; details: bacteria in modified MRS medium, FIGS. 1 and 2
From the text: (§1) Specifically, each of the microorganisms (bacteria, fungi, and yeasts) obtained from Korean Culture Center of Microorganisms (KCCM) was subcultured three or four times in a culture medium (Table 1) by a typical method to enhance activity. Then, the cultured microorganism was inoculated into a culture medium (Table 1), followed by inducing over-cultivation to a concentration of 10^5 CFU/mL or more, thereby obtaining a strain mother liquor (Table 1).
(§2) In order to compare degrees of inhibition of the growth of microorganisms depending upon the kind of purely added saccharides without a bias due to alcohol and other additives contained in a fermented alcoholic beverage, only the kind of saccharides added to a culture medium for each of the microorganisms was varied and investigated.
(§3) Specifically, as saccharides of a culture medium suited to each strain, water-containing crystalline glucose (purity 98 wt % or more, CJ Cheiljedang), sucrose (purity 98 wt % or more, CJ Cheiljedang), and crystalline allulose (purity: 98 wt % or more, CJ Cheiljedang) were added to each of the culture medium, thereby preparing a modified culture medium (Tables 2 to 4). […]
(§4) Thereafter, the measured number of cell colonies was multiplied by a dilution factor, thereby calculating a value of colony forming unit (CFU) per mL of sample.

[2] = test system: Saccharomyces cerevisiae and Saccharomyces pastorianus, as yeasts; assay: Increase in cell number of yeasts depending on saccharides; assay type: cell-based; details: yeasts in modified YMB medium, FIGS. 8 and 9
From the text: as §1, §2, §3, §4

Q: What does the source list for O=C(CO)C(O)C(O)C(O)CO (centres unmarked) [allulose]?
A: strain growth (in words) [1]: substantially no strain growth was observed; strain growth (in words) [2]: substantially no strain growth was observed

Source: patent US11708549B2, “Bacterial, fungal, and yeast growth inhibitor containing allulose” (CJ CHEILJEDANG CORPORATION, priority 2016, dated 2023)
